Measurements: patent US20050171350A1, “Benzhydryl derivatives” (Fujisawa Pharamaceutical Co., Ltd., priority 2001, published 2005)

test system: emesis in the dog; assay: Emesis in the Dog (apomorphine-induced retching and vomiting); format: in vivo; settings: adult female dogs; test compound i.v. at the dose of 1.0 mg/kg; 5 min later subcutaneous apomorphine (0.1 mg/0.5 ml/kg); observed for 60 min
Description: Individually housed adult female dogs (8 to 15 kg) were given an i.v. injection of a solution containing a test compound. 5 Min later the emetic responses (retching and vomiting) were induced by administration of subcutaneous apomorphine (0.1 mg/0.5 ml/kg) and observed for the next 60 min. The timing and number of retches and vomits observed were recorded for each animal. An individual animal was tested with at least 10 days between experiments.

SMILES | inhibition rate of emesis in the dog
COc1nc(OC)c(CN2C[C@@H]3CN(C(=O)CO)CCN3[C@H](C(c3ccccc3)c3ccccc3)C2)c(OC)n1.Cl.Cl [Example 1, 2-[(6R, 9aR)-6-benzhydryl-8-[(2,4,6-trimethoxy-5-pyrimidinyl)methyl]octahydro-2H-pyrazino[1,2-a]pyrazin-2-yl]-2-oxoethanol dihydrochloride] | 100%

test system: not given; assay: not given; settings: not given

SMILES | melting point
CCOc1nc(OC)nc(OC)c1CN1C[C@@H]2CN(C(=O)CO)CCN2[C@H](C(c2ccccc2)c2ccccc2)C1.Cl.Cl | 150 to 152 °C (dec.)
COc1nc(OC)c(CN2C[C@@H]3CN(C(=O)CO)CCN3[C@H](C(c3ccccc3)c3ccccc3)C2)c(OC2CCC2)n1.Cl.Cl | 141 to 145 °C
COc1nc(C)nc(OC)c1CN1C[C@@H]2CN(C(=O)CO)CCN2[C@H](C(c2ccccc2)c2ccccc2)C1.Cl.Cl | 129 to 132 °C
COc1nc(OC)c(CN2C[C@@H]3CN(C(=O)CO)CCN3[C@H](C(c3ccccc3)c3ccccc3)C2)c(OC(C)C)n1.Cl.Cl | 145 to 148 °C (dec.)
COc1nc(Cl)c(CN2C[C@@H]3CN(C(=O)CO)CCN3[C@H](C(c3ccccc3)c3ccccc3)C2)c(OC)n1.Cl.Cl | 98 to 101 °C (dec.)
COc1nc(Cl)nc(OC)c1CN1C[C@@H]2CN(C(=O)CO)CCN2[C@H](C(c2ccccc2)c2ccccc2)C1.Cl.Cl | 150 to 155 °C (dec.)
COc1nc(OC)c(CN2C[C@@H]3CN(C(=O)CO)CCN3[C@H](C(c3ccccc3)c3ccccc3)C2)c(OCC(F)F)n1.Cl.Cl | 143 to 146 °C
COc1nc(C)c(CN2C[C@@H]3CN(C(=O)CO)CCN3[C@H](C(c3ccccc3)c3ccccc3)C2)c(OC)n1.Cl.Cl | 174 to 177 °C
COc1nc(OC)c(CN2C[C@@H]3CN(C(=O)N4CCOCC4)CCN3[C@H](C(c3ccccc3)c3ccccc3)C2)c(OC)n1.Cl.Cl | 139 to 143 °C
COc1nc(OC)c(CN2C[C@@H]3CN(C(=O)c4cccnc4)CCN3[C@H](C(c3ccccc3)c3ccccc3)C2)c(OC(C)C)n1.Cl.Cl.Cl | 143 to 147 °C
COc1nc(OC)c(CN2C[C@@H]3CN(C(=O)CO)CCN3[C@H](C(c3ccccc3)c3ccccc3)C2)c(OC)n1.Cl.Cl [Example 1, 2-[(6R, 9aR)-6-benzhydryl-8-[(2,4,6-trimethoxy-5-pyrimidinyl)methyl]octahydro-2H-pyrazino[1,2-a]pyrazin-2-yl]-2-oxoethanol dihydrochloride] | 155 to 158 °C (dec.)
